The values that follow come from ChEMBL document CHEMBL1126140, “Nucleosides and nucleotides. 103. 2-Alkynyladenosines: a novel class of selective adenosine A2 receptor agonists with potent antihypertensive effects” (J Med Chem, 1992).

In assay [1] the target is T1, Adenosine receptor A1 (Rattus norvegicus, UniProt P25099).
T1 sequence (P25099 whole entry): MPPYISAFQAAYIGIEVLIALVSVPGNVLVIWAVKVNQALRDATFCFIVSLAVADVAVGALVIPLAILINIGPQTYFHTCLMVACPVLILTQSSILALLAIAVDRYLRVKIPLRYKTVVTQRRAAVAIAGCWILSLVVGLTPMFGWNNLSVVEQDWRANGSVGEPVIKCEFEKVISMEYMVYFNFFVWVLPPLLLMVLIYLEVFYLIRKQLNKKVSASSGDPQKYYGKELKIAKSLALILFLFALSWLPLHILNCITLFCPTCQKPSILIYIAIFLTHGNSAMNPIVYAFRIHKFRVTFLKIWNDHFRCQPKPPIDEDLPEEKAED
Description: Binding affinity against adenosine A1 receptor in rat brain membranes using [3H]CHA as radioligand

Assay [2] concerns Rattus norvegicus. Nature of the assay: Dose producing 30% decrease of blood pressure in anesthetized rats (SHR). In kind it is functional.
Assay [3] concerns the target T2, Adenosine A2 receptor (Rattus norvegicus, UniProt P29276+P30543).
Description: Binding affinity against adenosine A2 receptor in rat striatal membranes using [3H]NECA as radioligand
Assay [4] has as its system Rattus norvegicus. The assay is described as follows: Dose producing 10% decrease of heart rate in anesthetized rats (SHR). The class given is functional.
Assay [5] concerns the target T1, Adenosine receptor A1. The assay is described as follows: Binding affinity against adenosine A1 receptor in rat brain membranes using [3H]-CHA. In kind it is cell membranes.
For assay [6], the target named is T2, Adenosine A2 receptor. The assay is described as follows: Binding affinity against adenosine A2 receptor in rat striatal membranes using [3H]NECA. The class given is cell membranes, Striatum, Membrane.

Usually Ki stands for a measure of affinity in units of concentration, obtained from inhibition or displacement. A higher Ki goes with weaker binding.

A value given as a limit tells only on which side of the number the result lay.

Turning to `CCC#Cc1nc(N)c2ncn([C@@H]3O[C@H](CO)[C@@H](O)[C@H]3O)c2n1`, the Ki in assay [1] was found to be 186 nM; in assay [3], 21.2 nM. The compound further registered an ED30 in assay [2] of 0.48 µg/kg. This compound registered an ED10 in assay [4] of 18.4 µg/kg.

On to `C[Si](C)(C)C#Cc1nc(N)c2ncn([C@@H]3O[C@H](CO)[C@@H](O)[C@H]3O)c2n1`, for which the inhibitory constant (Ki) in assay [1] was determined as 69.8 nM; in assay [3] it was 630 nM. For the same compound, the ED30 in assay [2] worked out at 1.15 µg/kg. The compound also came in with an ED10 in assay [4] of more than 100 µg/kg.

Turning to `CCCCOCC#Cc1nc(N)c2ncn([C@@H]3O[C@H](CO)[C@@H](O)[C@H]3O)c2n1`, the Ki in assay [1] is 18.5 nM; in assay [3] it was 10.6 nM. This compound also displayed an ED30 in assay [2] of 1.06 µg/kg. In addition, the ED10 in assay [4] was determined as 9.59 µg/kg.

`Nc1nc(C#CCO)nc2c1ncn2[C@@H]1O[C@H](CO)[C@@H](O)[C@H]1O`: the values for the Ki in assay [1] and in assay [3] were 10.1 nM and 20.5 nM, respectively. This compound also returned an ED30 in assay [2] of 0.95 µg/kg. This compound also came in with an ED10 in assay [4] of 1.19 µg/kg.

Regarding `CCOCCCC#Cc1nc(N)c2ncn([C@@H]3O[C@H](CO)[C@@H](O)[C@H]3O)c2n1`, the Ki in assay [1] was determined as 244 nM; in assay [3] it was 12.8 nM. In addition, the ED30 in assay [2] turned out to be 1.42 µg/kg. Besides, the ED10 in assay [4] is more than 100 µg/kg.

On to `CCCCCCCCc1nc(N)c2ncn(C3O[C@H](CO)[C@@H](O)[C@H]3O)c2n1` (some centres not stated), for which the Ki in assay [1] and in assay [3] was more than 567 nM each time. The compound further displayed an ED30 in assay [2] of more than 100 µg/kg. The same compound gave an ED10 in assay [4] of more than 100 µg/kg.

Turning to `CCCCCCCCCCC#Cc1nc(N)c2ncn(C3O[C@H](CO)[C@@H](O)[C@H]3O)c2n1` (some centres not stated), the Ki was determined as 267 nM in assay [5] and 44.6 nM in assay [6]. Further, in assay [2], the ED30 is 2.05 µg/kg. In assay [4], this compound gave an ED10 of more than 100 µg/kg.

Consider `CCCCCC/C=C\c1nc(N)c2ncn(C3O[C@H](CO)[C@@H](O)[C@H]3O)c2n1` (some centres not stated), for which the Ki is more than 567 nM in assay [1] and 150 nM in assay [3]. The ED30 in assay [2] was 5 µg/kg. The ED10 in assay [4] is more than 100 µg/kg.

With `CCCCCCC#Cc1ncnc2c1ncn2C1O[C@H](CO)[C@@H](O)[C@H]1O` (some centres not stated), the Ki in assay [1] and in assay [3] was more than 567 nM in each case. The same compound displayed an ED30 in assay [2] of more than 100 µg/kg. The ED10 in assay [4] was more than 100 µg/kg.

On to `CCCCCCCCC#Cc1nc(N)c2ncn([C@@H]3O[C@H](CO)[C@@H](O)[C@H]3O)c2n1`, for which the Ki in assay [1] was determined as 232 nM; in assay [3] it was 32.8 nM. Besides, in assay [2], the ED30 was 0.46 µg/kg. The same compound came in with an ED10 in assay [4] of more than 100 µg/kg.

As for `CCCCCCC#Cc1nc(N)c2[nH]cnc2n1`, the Ki in assay [1] and in assay [3] was more than 567 nM throughout. Also, the ED30 in assay [2] is more than 100 µg/kg. Also, the ED10 in assay [4] is more than 100 µg/kg.

With `Nc1nc(C#CCCO)nc2c1ncn2[C@@H]1O[C@H](CO)[C@@H](O)[C@H]1O`, the Ki in assay [1] is 81.4 nM; in assay [3], 40.1 nM. Besides, the ED30 in assay [2] came to 2.53 µg/kg. For the same compound, the ED10 in assay [4] was determined as 15.3 µg/kg.

As to `CCCCCCC#Cc1nc(O)c2ncn(C3O[C@H](CO)[C@@H](O)[C@H]3O)c2n1` (some centres not stated), the Ki in assay [1] and in assay [3] was more than 567 nM each time. The same compound yielded an ED30 in assay [2] of more than 100 µg/kg. This compound also displayed an ED10 in assay [4] of more than 100 µg/kg.

`CCCCCCCC#Cc1nc(N)c2ncn([C@@H]3O[C@H](CO)[C@@H](O)[C@H]3O)c2n1`: the results for the Ki in assay [1] and in assay [3] were 257 nM and 33.7 nM, respectively. Further, in assay [2], the ED30 came out at 0.53 µg/kg. In addition, the ED10 in assay [4] was more than 100 µg/kg.

As for `CCc1nc(N)c2ncn(C3O[C@H](CO)[C@@H](O)[C@H]3O)c2n1` (some centres not stated), the Ki in assay [1] and in assay [3] was more than 567 nM each time. For the same compound, in assay [2], the ED30 was more than 100 µg/kg. The compound also came in with an ED10 in assay [4] of more than 100 µg/kg.

`COCC#Cc1nc(N)c2ncn([C@@H]3O[C@H](CO)[C@@H](O)[C@H]3O)c2n1`: the values for the Ki in assay [1] and in assay [3] were 38.1 nM and 88.1 nM, respectively. For the same compound, the ED30 in assay [2] amounted to 23.8 µg/kg. This compound gave an ED10 in assay [4] of 44.2 µg/kg.

The compound `CCNC(=O)[C@H]1O[C@@H](n2cnc3c(N)ncnc32)[C@H](O)[C@@H]1O` [NECA] returned an ED30 in assay [2] of 0.19 µg/kg. The same compound showed an ED10 in assay [4] of 0.35 µg/kg.

`CCCCC#Cc1nc(N)c2ncn([C@@H]3O[C@H](CO)[C@@H](O)[C@H]3O)c2n1` returned an inhibition constant (Ki) in assay [1] of 126 nM. Moreover, the ED30 in assay [2] came out at 0.11 µg/kg. The ED10 in assay [4] was determined as 66.9 µg/kg.

On to `CCCC#Cc1nc(N)c2ncn([C@@H]3O[C@H](CO)[C@@H](O)[C@H]3O)c2n1`, for which the inhibitory constant (Ki) in assay [1] was 154 nM; in assay [3], 7.5 nM. Also, the ED30 in assay [2] amounted to 0.18 µg/kg. In assay [4], this compound gave an ED10 of 41.5 µg/kg.

For `CCNC(=O)[C@H]1O[C@@H](n2cnc3c(N)nc(NCCc4ccc(CCC(=O)O)cc4)nc32)[C@H](O)[C@@H]1O` [CGS-21680], in assay [2], the ED30 was determined as 0.83 µg/kg. For the same compound, the ED10 in assay [4] was more than 100 µg/kg.

Turning to `CCCCCCC#Cc1nc2c(N)ncnc2n1C1O[C@H](CO)[C@@H](O)[C@H]1O` (some centres not stated), the Ki in assay [1] and in assay [3] was more than 567 nM in each case. In addition, in assay [2], the ED30 was more than 100 µg/kg. In assay [4], this compound showed an ED10 of more than 100 µg/kg.

For the compound `CCCCCCCCOCCC#Cc1nc(N)c2ncn([C@@H]3O[C@H](CO)[C@@H](O)[C@H]3O)c2n1`, the results for the Ki in assay [1] and in assay [3] were 1500 nM and 307 nM, respectively. The compound further returned an ED30 in assay [2] of 9.16 µg/kg. The same compound returned an ED10 in assay [4] of more than 100 µg/kg.

Consider `CCCCCC#Cc1nc(N)c2ncn([C@@H]3O[C@H](CO)[C@@H](O)[C@H]3O)c2n1`, for which the Ki in assay [1] is 170 nM; in assay [3], 5.4 nM. For the same compound, the ED30 in assay [2] worked out at 0.14 µg/kg. The ED10 in assay [4] was more than 100 µg/kg.

On to `OC[C@H]1O[C@@H](n2cnc3c(NC4CCCC4)ncnc32)[C@H](O)[C@@H]1O` [N6-CYCLOPENTYLADENOSINE], for which, in assay [2], the ED30 is 0.5 µg/kg. For the same compound, the Ki in assay [3] is 421 nM. Further, the ED10 in assay [4] is 0.14 µg/kg.

In assay [2], `Nc1nc(Nc2ccccc2)nc2c1ncn2[C@@H]1O[C@H](CO)[C@@H](O)[C@H]1O` yielded an ED30 of 5.82 µg/kg. In assay [3], this compound registered a Ki of 107 nM. For the same compound, the ED10 in assay [4] was more than 100 µg/kg.

As to `C#Cc1nc(N)c2ncn(C3O[C@H](CO)[C@@H](O)[C@H]3O)c2n1` (some centres not stated), the figures for the Ki in assay [1] and in assay [3] were 272 nM and 37.6 nM, respectively. For the same compound, in assay [2], the ED30 turned out to be 5.91 µg/kg. In assay [4], this compound returned an ED10 of 5.76 µg/kg.

`COc1cc(OC)cc(C(CNc2ncnc3c2ncn3[C@@H]2O[C@H](CO)[C@@H](O)[C@H]2O)c2ccccc2C)c1` (some centres not stated) displayed a Ki in assay [1] of 103 nM. Further, the ED30 in assay [2] amounted to 12.1 µg/kg. For the same compound, the ED10 in assay [4] was more than 100 µg/kg.

Turning to `CCCOCCC#Cc1nc(N)c2ncn(C3O[C@H](CO)[C@@H](O)[C@H]3O)c2n1` (some centres not stated), the results for the Ki in assay [1] and in assay [3] were 128 nM and 10.2 nM, respectively. The compound further returned an ED30 in assay [2] of 1.1 µg/kg. The compound further registered an ED10 in assay [4] of 79.9 µg/kg.

For `CC(=O)c1nc(N)c2ncn(C3O[C@H](CO)[C@@H](O)[C@H]3O)c2n1` (some centres not stated), the Ki in assay [1] and in assay [3] was more than 567 nM throughout. In assay [2], the ED30 was 46.7 µg/kg. The ED10 in assay [4] turned out to be 50.3 µg/kg.

Turning to `CCCCCCC#Cc1nc(N)c2ncn([C@@H]3O[C@H](CO)[C@@H](O)[C@H]3O)c2n1`, the results for the Ki in assay [1] and in assay [3] were 202 nM and 12.1 nM, respectively. Moreover, the ED30 in assay [2] turned out to be 0.34 µg/kg. The compound further returned an ED10 in assay [4] of more than 100 µg/kg.
